According to article PMC6930600, “Synthesis of Aryl Propionamide Scaffold Containing a Pentafluorosulfanyl Moiety as SARMs” (Molecules, 2019):

Molecular target: T1, androgen receptor (AR) (Homo sapiens, UniProt P10275)
T1 construct: AR expressed transiently from plasmid pSVAR0 (known as a human full-length AR expression vector)
T1 sequence (P10275 1-920): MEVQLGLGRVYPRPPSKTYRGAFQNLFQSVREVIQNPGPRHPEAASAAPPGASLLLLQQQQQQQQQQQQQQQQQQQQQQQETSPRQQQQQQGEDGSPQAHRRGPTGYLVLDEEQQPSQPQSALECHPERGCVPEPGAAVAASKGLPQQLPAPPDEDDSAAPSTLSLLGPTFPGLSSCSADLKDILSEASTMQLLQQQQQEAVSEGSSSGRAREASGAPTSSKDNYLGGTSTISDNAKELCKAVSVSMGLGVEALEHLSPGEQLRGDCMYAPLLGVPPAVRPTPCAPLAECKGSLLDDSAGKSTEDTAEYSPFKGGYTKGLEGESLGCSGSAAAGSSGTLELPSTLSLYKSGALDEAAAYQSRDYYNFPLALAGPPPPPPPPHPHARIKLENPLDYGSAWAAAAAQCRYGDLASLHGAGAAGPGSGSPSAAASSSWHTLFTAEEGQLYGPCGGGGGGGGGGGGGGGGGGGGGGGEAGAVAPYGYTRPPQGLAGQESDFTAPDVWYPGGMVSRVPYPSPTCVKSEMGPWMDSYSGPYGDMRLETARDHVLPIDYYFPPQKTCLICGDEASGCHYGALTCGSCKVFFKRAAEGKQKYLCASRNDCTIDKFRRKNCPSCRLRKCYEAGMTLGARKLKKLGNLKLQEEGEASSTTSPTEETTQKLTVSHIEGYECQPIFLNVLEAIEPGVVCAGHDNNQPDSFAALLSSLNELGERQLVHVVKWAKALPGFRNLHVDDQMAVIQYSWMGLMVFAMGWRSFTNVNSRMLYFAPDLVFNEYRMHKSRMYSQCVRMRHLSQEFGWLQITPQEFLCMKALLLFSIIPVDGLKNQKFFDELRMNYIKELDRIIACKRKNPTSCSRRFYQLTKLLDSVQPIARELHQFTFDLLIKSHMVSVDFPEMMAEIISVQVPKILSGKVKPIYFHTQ
Assay: MMTV-luciferase reporter gene agonist assay, transfected CV-1 cells
Format: cell-based
Details: agonist mode, […] h, […] °C
From the text: MMTV-luciferase reporter gene agonist assay, transfected CV-1 cells on androgen receptor (AR)

SMILES | Agonist activity in CV-1 / EC50 (unreliable) [nM] | Agonist activity in CV-1 / EC50 (unreliable (above top tested concentration […])) [nM]
C[C@](O)(COc1ccc(Cl)cc1)C(=O)Nc1cccc(S(F)(F)(F)(F)F)c1 [12c, (S)-3-(4-chlorophenoxy)-2-hydroxy-2-methyl-N-(3-(pentafluoro-l6-sulfanyl)phenyl)propanamide] | 1282 ± 79.2 | –
C[C@](O)(COc1ccc(F)cc1)C(=O)Nc1cccc(S(F)(F)(F)(F)F)c1 [12b, (S)-3-(4-fluorophenoxy)-2-hydroxy-2-methyl-N-(3-(pentafluoro-l6-sulfanyl)phenyl)propanamide] | – | 51213.5 ± 5806.1
CCC(=O)c1ccc(OC[C@](C)(O)C(=O)Nc2cccc(S(F)(F)(F)(F)F)c2)cc1 [12f, (S)-2-hydroxy-2-methyl-N-(3-(pentafluoro-l6-sulfanyl)phenyl)-3-(4-propionylphenoxy)propanamide] | 12733.5 ± 2144.7 | –
C[C@](O)(COc1ccc(C#N)cc1)C(=O)Nc1cccc(S(F)(F)(F)(F)F)c1 [12a, (S)-3-(4-cyanophenoxy)-2-hydroxy-2-methyl-N-(3-(pentafluoro-l6-sulfanyl)phenyl)propanamide] | 1508 ± 429.9 | –
COc1ccc(OC[C@](C)(O)C(=O)Nc2ccc(S(F)(F)(F)(F)F)cc2)c(F)c1 [16g, (S)-3-(2-fluoro-4-methoxyphenoxy)-2-hydroxy-2-methyl-N-(4-(pentafluorosulfanyl)phenyl)propanamide] | 2144.0 ± 694.4 | –
